Columns and labels:
[1] = test system: Sf21 cells; assay: Sf21 cell culture: morphology and count of cells displaying processes (transformants); format: cell-based, Spodoptera frugiperda
[2] = test system: Aedes aegypti established cell line; conditions: 2 days exposure to 3×10^−7 M; cited from earlier work
[3] = test system: Drosophila Kc-H line; conditions: cited from earlier work
[4] = test system: Sf21 cells; format: cell-based, Spodoptera frugiperda
[5] = test system: continuous cell lines of the Beet Armyworm, Spodoptera exigua; conditions: cell proliferation assay; cited from earlier work
[6] = test system: acetylcholinesterase (ACHE); conditions: 10^−6 M; cited from earlier work

In the case of CC(C)(O)CC[C@@H](O)[C@](C)(O)[C@H]1CC[C@@]2(O)C3=CC(=O)[C@@H]4C[C@@H](O)[C@@H](O)C[C@]4(C)[C@H]3CC[C@]12C [20-hydroxyecdysone], the “increase in the number of cells showing one or more processes” value ([1]; 20 μg/ml, counted 2 days after treatment, vs control, n=8) is listed as ~30 fold, the “effect on cell morphology” value ([1]; TNM-FH medium supplemented with 10 μg/ml, 48 hours after passage (FIG. 2)) is listed as “numerous cells assume the appearance of monopolar neurons, with prominent axon-like structures” and the “stimulation of AChE activity” value [2] is listed as 2 fold. For the same compound, the “concentration at which cells extend long processes and acquire acetylcholinesterase activity” value [3] was “greater than or equal to 10^−8 molar”.

With COc1ccc(C(=O)O[C@H]2CC[C@@]3(C)[C@@H]4CC[C@H]5[C@]6(O)C[C@H](O)[C@@]7(O)[C@@H](CN8C[C@@H](C)CC[C@H]8[C@@]7(C)O)[C@]6(O)C[C@@]53O[C@]24O)cc1OC [veratridine] the “increase in the number of transformants” value [4] was ~3 fold.

In the case of Cc1c(COC(=O)[C@@H]2[C@H](/C=C(\Cl)C(F)(F)F)C2(C)C)cccc1-c1ccccc1 (racemic) [bifenthrin], the “activity in undifferentiated cells” value [5] is given as “low activity”.

In the case of “nerve growth factor: nerve growth factor (NGF)”, the “effect on cell morphology” value ([1]; 20 μg/ml NGF, 48 hours after passage (FIG. 5)) is reported as “does not induce any similar morphological changes”.

For NC1=N[C@H](O)[C@H]2[C@H]3O[C@]4(O)O[C@@H]([C@@H](O)[C@@]2(N1)[C@@H]4O)[C@]3(O)CO [TTX, tetrodotoxin], the “effect on veratridine-induced increase in transformants” value [4] was “blocked”.

In the case of CNC(=O)Oc1ccc2c(c1)[C@]1(C)CCN(C)[C@@H]1N2C.CNC(=O)Oc1ccc2c(c1)[C@]1(C)CCN(C)[C@@H]1N2C.O=S(=O)(O)O [serine sulfate], the “effect on enzyme (AChE)” value [6] is listed as “blocked”.
